Here are results for 1 molecule from article PMC4760375, “A dual phosphorylation switch controls 14-3-3-dependent cell surface expression of TASK-1” (Journal of Cell Science, 2016).

Non-standard residues stand in square brackets, D forms with d. Residues, ends and D or L forms follow the SMILES beside them. pS = N[C@@H](COP(=O)(O)O)C(=O)O

For one experiment, the target named is T1, 14-3-3ε (Homo sapiens, UniProt P62258).
T1 construct: Open reading frames encoding human 14-3-3 proteins were inserted into the pMAL2Cx vector at EcoRI and HindIII restriction sites; made in house
Description: Fluorescence polarization titration with 14-3-3ε. The experiment is classed as binding. Conditions: versus TASK-3 pS373. Here is the method: (§1) TASK-1 or TASK-3 C-terminal fluorescent peptides (10 nM), comprising the last 15 amino acids of the respective C-termini, were titrated with concentrations of the 14-3-3 proteins ranging from 1 nM to 120 µM (Fig. 2), and the equilibrium dissociation constants of 14-3-3 proteins were calculated for TASK-1 phosphorylated at S393 (TASK-1 pS393; the conserved serine residue of the mode III 14-3-3-binding motif) and for TASK-3 phosphorylated at S373 (TASK-3 pS373) (Table 1). They ranged from 7.5±0.14 µM (mean±s.e.m.; 14-3-3β) to 49.4±2 µM (14-3-3τ) for TASK-1, whereas dissociation constants for TASK-3 ranged from 110±10 nM (14-3-3η) to 3.6±0.44 µM (14-3-3σ). The latter value matches the result determined previously by [Anders et al. (2013]) for the TASK-3 C-terminal hexapeptide using isothermal titration calorimetry. […]
(§2) Fig. 2. […] Fluorescence polarization titration of fluorescein-labeled TASK-1 pS393 (black), TASK-3 pS373 (red) and TASK-3 pS373 ΔV374 (blue) peptide (10 nM) with increasing concentrations of the indicated 14-3-3 isoform. Fluorescein was excited at 485 nm, and fluorescence polarization was monitored at 535 nm. […]
(§3) Interactions between 14-3-3 proteins and TASK-1 and TASK-3 C-terminal peptides and variants were investigated using a fluorescence polarization assay ([Moll et al., 2006]; [Muda et al., 2014]). […]

The target of another experiment is T2, 14-3-3β (Homo sapiens, UniProt P31946).
T2 construct: Open reading frames encoding human 14-3-3 proteins were inserted into the pMAL2Cx vector at EcoRI and HindIII restriction sites; made in house
Description: Fluorescence polarization titration with 14-3-3β. The experiment is classed as binding. The settings on record: versus TASK-3 pS373. The method, then: as §1, §2, §3

The subject of experiment [1] is 14-3-3 proteins (all seven isoforms). Description: Fluorescence polarization titration, statements across the 14-3-3 isoforms. The format is binding, human. The settings on record: fluorescence polarization; 14-3-3β, 14-3-3γ, 14-3-3ζ, 14-3-3η and 14-3-3τ. Here is the method: TASK-1 or TASK-3 C-terminal fluorescent peptides (10 nM), comprising the last 15 amino acids of the respective C-termini, were titrated with concentrations of the 14-3-3 proteins ranging from 1 nM to 120 µM (Fig. 2), and the equilibrium dissociation constants of 14-3-3 proteins were calculated for TASK-1 phosphorylated at S393 (TASK-1 pS393; the conserved serine residue of the mode III 14-3-3-binding motif) and for TASK-3 phosphorylated at S373 (TASK-3 pS373) (Table 1). They ranged from 7.5±0.14 µM (mean±s.e.m.; 14-3-3β) to 49.4±2 µM (14-3-3τ) for TASK-1, whereas dissociation constants for TASK-3 ranged from 110±10 nM (14-3-3η) to 3.6±0.44 µM (14-3-3σ). The latter value matches the result determined previously by [Anders et al. (2013]) for the TASK-3 C-terminal hexapeptide using isothermal titration calorimetry. The dissociation constants of the seven mammalian 14-3-3 isoforms for the same TASK C-terminal peptide differed up to sevenfold for TASK-1-derived peptides and up to 30-fold for TASK-3-derived peptides. […] No binding of any 14-3-3 isoform to any TASK C-terminal peptide was observed when the peptides were not phosphorylated.
Fig. 2. […] Fluorescence polarization titration of fluorescein-labeled TASK-1 pS393 (black), TASK-3 pS373 (red) and TASK-3 pS373 ΔV374 (blue) peptide (10 nM) with increasing concentrations of the indicated 14-3-3 isoform. Fluorescein was excited at 485 nm, and fluorescence polarization was monitored at 535 nm. A monophasic fit was used to fit the data (Goodness-of-fit: R^2 from 0.76 to 0.98). No binding was detectable for the unphosphorylated TASK C-terminal peptides. The assay was repeated at least six times for each data point with two batches of independently purified 14-3-3 proteins. Error bars depict s.e.m. (A) 14-3-3β, (B) 14-3-3γ, (C) 14-3-3ε, (D) 14-3-3ζ, (E) 14-3-3η and (F) 14-3-3τ.
[Mant et al. (2011)] report that both serine residues present in the TASK-1 C-terminus can be phosphorylated in vitro by the recombinant catalytic subunit of PKA. […] Next, using fluorescence polarization titration, we determined how phosphorylation of S392 affects the affinity of all seven mammalian 14-3-3 proteins for the TASK-1 C-terminus – either when phosphorylated alone or in combination with phosphorylation of S393 (Table S1). […] Because all Kd values determined for TASK-1 pS392 and the doubly phosphorylated protein (at S392 and S393) were substantially higher than those measured for TASK-1 pS393 (Table S1), we conclude that phosphorylation of S392 cannot substitute for phosphorylated S393 in creating a high-affinity 14-3-3 binding site. On the contrary, our results are consistent with an inhibitory role for phosphorylation of S392 with respect to 14-3-3-mediated binding.
Interactions between 14-3-3 proteins and TASK-1 and TASK-3 C-terminal peptides and variants were investigated using a fluorescence polarization assay ([Moll et al., 2006]; [Muda et al., 2014]). Fluorescein-labeled peptides were purchased from Peps4Life Sciences (Heidelberg, Germany). All measurements were performed in buffer containing 20 mM MOPS, 150 mM NaCl, 0.005% (v/v) CHAPS pH 7.0, using a Fusion™ α-FP microtiter plate reader at room temperature in a 384-well microtiter plater (Optiplate 384, black; Packard, Meriden, CT). 14-3-3 proteins were serially diluted from 100 µM to 1 nM and incubated with 10 nM of fluorescently labeled peptide. The fluorescence polarization signal was detected for 2 s at an excitation wavelength of 485 nm with an emission fluorescence polarization filter wavelength of 535 nm and a photomultiplier voltage of 1100. Data were analyzed with GraphPad Prism 6.0 (GraphPad Software, San Diego, CA) by plotting the obtained fluorescence polarization signal in millipolarization units (mPol) against the logarithm of the 14-3-3 protein concentration. The data were then fitted using a monophasic fit.

A further experiment deals with T3, 14-3-3σ (Homo sapiens, UniProt P31947).
T3 construct: Open reading frames encoding human 14-3-3 proteins were inserted into the pMAL2Cx vector at EcoRI and HindIII restriction sites; made in house
T3 sequence (P31947 1-248): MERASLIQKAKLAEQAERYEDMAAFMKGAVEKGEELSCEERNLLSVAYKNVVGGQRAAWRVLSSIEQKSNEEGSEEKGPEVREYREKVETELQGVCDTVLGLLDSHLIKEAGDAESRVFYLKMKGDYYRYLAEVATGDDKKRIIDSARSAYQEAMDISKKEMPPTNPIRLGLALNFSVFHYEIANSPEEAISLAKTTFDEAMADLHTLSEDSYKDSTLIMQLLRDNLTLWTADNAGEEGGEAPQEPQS
As to the kind of experiment: Fluorescence polarization titration with 14-3-3σ. The format is binding. Here is the method:
as §1, §2, §3
(In fluorescence polarisation assays a small probe gives low polarisation when free and higher when bound to something large.)

T2 sequence (P31946 whole entry): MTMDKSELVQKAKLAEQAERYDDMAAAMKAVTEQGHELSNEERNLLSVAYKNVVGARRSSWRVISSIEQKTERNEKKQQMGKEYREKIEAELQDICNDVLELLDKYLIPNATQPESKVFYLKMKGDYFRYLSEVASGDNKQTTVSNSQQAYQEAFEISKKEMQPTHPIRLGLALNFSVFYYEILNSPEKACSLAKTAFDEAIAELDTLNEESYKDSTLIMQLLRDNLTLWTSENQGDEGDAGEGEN
T1 sequence (P62258 whole entry): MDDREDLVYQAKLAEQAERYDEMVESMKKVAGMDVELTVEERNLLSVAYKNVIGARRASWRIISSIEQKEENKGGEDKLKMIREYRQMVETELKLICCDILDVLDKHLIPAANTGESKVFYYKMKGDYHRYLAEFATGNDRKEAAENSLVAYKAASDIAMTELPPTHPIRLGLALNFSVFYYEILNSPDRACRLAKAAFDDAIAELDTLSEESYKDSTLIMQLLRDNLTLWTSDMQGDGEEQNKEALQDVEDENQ

In the case of `CSCC[C@H](NC(=O)[C@H](CC(C)C)NC(=O)[C@H](CCCNC(=N)N)NC(=O)[C@H](CCC(N)=O)NC(=O)[C@H](Cc1c[nH]cn1)NC(=O)[C@H](CC(=O)O)NC(=O)[C@@H](NC(=O)[C@H](Cc1ccccc1)NC(=O)[C@H](CO)NC(=O)[C@@H](N)CS)[C@@H](C)O)C(=O)N[C@@H](CCCCN)C(=O)N[C@@H](CCCNC(=N)N)C(=O)N[C@@H](CCCNC(=N)N)C(=O)N[C@@H](CCCCN)C(=O)N[C@@H](COP(=O)(O)O)C(=O)O` [TASK-3 pS373 ΔV374] (H-CSFTDHQRLMKRRK[pS]-OH; N-terminus assumed), on 14-3-3ε, the “fold reduction of affinity by the C-terminal deletion, 14-3-3 epsilon” value stood at 23 fold. For the same molecule, on 14-3-3β, the “fold reduction of affinity by the C-terminal deletion, 14-3-3β” value is “three”. Moreover, the “affinity range (in words)” value in experiment [1] is “low micromolar range”. On 14-3-3σ (10 nM fluorescein-labeled peptide titrated with 14-3-3 (1 nM to 120 µM), 20 mM MOPS, 150 mM NaCl, 0.005% CHAPS pH 7.0, room temperature, monophasic fit, ±s.e.m., n.b. = no binding detectable), the “Kd, fluorescence polarization, 14-3-3σ” value is “n.b.±n.b”. The “interaction with 14-3-3σ (in words)” value at 14-3-3σ (fluorescence polarization titration) was “could no longer be measured”.
